Columns and labels:
Assay type in all cases: cell-based
Actinomyces naeslundii = experiment: Biofilm growth assay in BHI, crystal violet; conditions: control = 1
Protocol: (§1) The increase in biofilm formation of the tested bacteria in response to selected compounds (Met-Pro, Phe-Glu) was investigated by setting up biofilm growth assays in a nutritionally rich medium (brain heart infusion broth (BHI), Oxoid), over 48 hours. Late exponential growth phase liquid cultures were prepared by transferring the respective bacterium from blood agar plates to BHI and overnight incubation at 37° C. in an anaerobic atmosphere for A. viscosus, V. parvula, F. nucleatum, P. gingivalis, P. intermedia, T. forsythia, A. naeslundii, and C. sputigena, and in a 5% CO2 environment for S. salivarius, S. sanguinis, S. mitis, A. actinomycetemcomitans, S. mutans, and S. gordonii. Overnight cultures were transferred to BHI and adjusted to a concentration of 1×10^7 CFU/ml by measuring the optical density at 600 nm (OD600) (BioRad SmartSpec 3000). For each strain, 200 μl of the bacterial suspension was added to a 96-well plate containing 20 μl of the respective di-peptides. Final concentrations of the di-peptides were set to 5, 10, 20 and 25 μmol/ml. […] Additionally, for each bacterium tested, a background control, to correct for background staining, was added. This background control contained the bacterium tested and 0.03 weight % chlorhexidine, as an antiseptic. Plates were incubated as previously described. After 48 hrs the supernatant was removed from the wells of the plates. The wells were washed twice with 1×100 μL PBS (phosphate buffered saline), fixed for 20 minutes with 96% vol. ethanol (96% vol. solution in water) and the biofilm retained at the bottom of the wells was stained with 1 weight % crystal violet (1 weight % solution in water). The bound dye was dissolved with 5% vol. acetic acid (5% vol. solution in water). Quantification of the stained biofilm was performed by measuring the absorbance at 630 nm using a Multiskan Ascent microplate reader (Thermo Scientific).
(§2) The experiment was carried out on three different days (thus providing 3 biological replicas) and each day the experiment was carried out in quadruple (thus providing 4 technical replicas) for each combination of bacterium with dipeptide and for each control. For each day and for each combination, the average (mean) of the values obtained (as detailed above) for the four technical replicas was calculated to provide a single value for each combination on each day. The values shown in Tables 7 to 8, below, are the average (mean) of the three single values obtained for each combination of bacterium with dipeptide.

Capnocytophaga sputigena = experiment: Biofilm growth assay in BHI, crystal violet; conditions: control = 1
Protocol: as §1, §2

Fusobacterium nucleatum = experiment: Biofilm growth assay in BHI, crystal violet; conditions: control = 1
Protocol: as §1, §2

Prevotella intermedia = experiment: Biofilm growth assay in BHI, crystal violet; conditions: control = 1
Protocol: as §1, §2

Streptococcus gordonii = experiment: Biofilm growth assay in BHI, crystal violet; conditions: control = 1
Protocol: as §1, §2

Streptococcus mitis = experiment: Biofilm growth assay in BHI, crystal violet; conditions: control = 1
Protocol: as §1, §2

Streptococcus mutans = experiment: Biofilm growth assay in BHI, crystal violet; conditions: control = 1
Protocol: as §1, §2

Streptococcus salivarius = experiment: Biofilm growth assay in BHI, crystal violet; conditions: control = 1
Protocol: as §1, §2

[1] = system: beneficial oral bacteria and pathogenic oral bacteria; experiment: Extent of growth, whole panel: prebiotic effect; conditions: threshold value of 1.25
Source text: Substrates that were able to increase the growth (or maximal growth density or extent of growth) of at least one of the above beneficial bacteria while not or only minimally increasing the growth (or maximal growth density) of the pathogenic bacteria are considered to be prebiotic compounds.
The extent of growth of the tested bacteria in response to selected compounds (Met-Pro, Phe-Glu) was investigated by setting up growth curves in a nutritionally rich medium (brain heart infusion broth (BHI), Oxoid), over 48 hours. Late exponential growth phase liquid cultures were prepared by transferring the respective bacterium from blood agar plates to BHI and overnight incubation at 37° C. in an anaerobic atmosphere for A. viscosus, V. parvula, F. nucleatum, P. gingivalis, P. intermedia, T. forsythia, A. naeslundii, and C. sputigena, and in a 5% CO2 environment for S. salivarius, S. sanguinis, S. mitis, A. actinomycetemcomitans, S. mutans, S. sobrinus and S. gordonii. Overnight cultures were transferred to BHI and adjusted to a concentration of 1×10^7 CFU/ml (colony forming units per ml) by measuring the optical density at 600 nm (OD600) (BioRad SmartSpec 3000). For each strain, 200 μl of the bacterial suspension was added to a 96-well plate containing 20 μl of the respective di-peptides. Final concentrations of the di-peptides were set to 5, 10, 20 and 25 μmol/ml. […] Plates were incubated as previously described.
For each combination of bacterium/dipeptide, and for each of their respective controls (i.e. the particular bacterium in the nutritionally rich medium with no dipeptide), the optical density was measured at 630 nm (OD630) at 0 h, 24 h and 48 h (Thermo Scientific Multiskan Ascent). Additionally, the OD630 for combinations of bacterium/dipeptide grown in a 5% CO2 environment were also measured every hour between 0 h and 9 h.
as §2, with “replicas) and on each day” for “replicas) and each day”, “in Tables 5 to 6,” for “in Tables 7 to 8,”, “5 to 6, below, are” for “7 to 8, below, are”
(§3) This value was selected in order to exclude low-stimulating metabolites and avoid false positive results.

[2] = system: beneficial oral bacteria and pathogenic oral bacteria; experiment: Biofilm growth, whole panel: prebiotic effect; conditions: threshold value of 1.6
Protocol: Substrates that were able to increase the biofilm mass of at least one of the above beneficial bacteria while not or only minimally increasing the biofilm mass of the pathogenic bacteria are considered to be prebiotic compounds.
as §1, §2, §3

| Substance | biofilm growth: OD 630 nm (crystal violet) at 48 hrs divided by OD of control (Actinomyces naeslundii; 5 μmol/ml) | biofilm growth: OD 630 nm (crystal violet) at 48 hrs divided by OD of control (Actinomyces naeslundii; 10 μmol/ml) | biofilm growth: OD 630 nm (crystal violet) at 48 hrs divided by OD of control (Actinomyces naeslundii; 20 μmol/ml) | biofilm growth: OD 630 nm (crystal violet) at 48 hrs divided by OD of control (Actinomyces naeslundii; 25 μmol/ml) | biofilm growth: OD 630 nm (crystal violet) at 48 hrs divided by OD of control (Capnocytophaga sputigena; 5 μmol/ml) | biofilm growth: OD 630 nm (crystal violet) at 48 hrs divided by OD of control (Capnocytophaga sputigena; 10 μmol/ml) | biofilm growth: OD 630 nm (crystal violet) at 48 hrs divided by OD of control (Capnocytophaga sputigena; 20 μmol/ml) | biofilm growth: OD 630 nm (crystal violet) at 48 hrs divided by OD of control (Capnocytophaga sputigena; 25 μmol/ml) | biofilm growth: OD 630 nm (crystal violet) at 48 hrs divided by OD of control (Fusobacterium nucleatum; 5 μmol/ml) | biofilm growth: OD 630 nm (crystal violet) at 48 hrs divided by OD of control (Fusobacterium nucleatum; 10 μmol/ml) | biofilm growth: OD 630 nm (crystal violet) at 48 hrs divided by OD of control (Fusobacterium nucleatum; 20 μmol/ml) | biofilm growth: OD 630 nm (crystal violet) at 48 hrs divided by OD of control (Fusobacterium nucleatum; 25 μmol/ml) | biofilm growth: OD 630 nm (crystal violet) at 48 hrs divided by OD of control (Prevotella intermedia; 5 μmol/ml) | biofilm growth: OD 630 nm (crystal violet) at 48 hrs divided by OD of control (Prevotella intermedia; 10 μmol/ml) | biofilm growth: OD 630 nm (crystal violet) at 48 hrs divided by OD of control (Prevotella intermedia; 20 μmol/ml) | biofilm growth: OD 630 nm (crystal violet) at 48 hrs divided by OD of control (Prevotella intermedia; 25 μmol/ml) | biofilm growth: OD 630 nm (crystal violet) at 48 hrs divided by OD of control (Streptococcus gordonii; 5 μmol/ml) | biofilm growth: OD 630 nm (crystal violet) at 48 hrs divided by OD of control (Streptococcus gordonii; 10 μmol/ml) | biofilm growth: OD 630 nm (crystal violet) at 48 hrs divided by OD of control (Streptococcus gordonii; 20 μmol/ml) | biofilm growth: OD 630 nm (crystal violet) at 48 hrs divided by OD of control (Streptococcus gordonii; 25 μmol/ml) | further results |
| --- | --- | --- | --- | --- | --- | --- | --- | --- | --- | --- | --- | --- | --- | --- | --- | --- | --- | --- | --- | --- | --- |
| Met-Pro | 1.1703 | 0.9986 | 0.4130 | 0.1281 | 0.2411 | 0.1949 | 0.1660 | 0.0138 | 0.6087 | 0.5568 | 0.6796 | 0.5216 | 1.2520 | 0.9773 | 0.2095 | 0.1148 | 1.4212 | 1.8572 | 1.6395 | 1.4372 | biofilm growth: OD 630 nm (crystal violet) at 48 hrs divided by OD of control (Streptococcus mitis; 5 μmol/ml): 1.3974; biofilm growth: OD 630 nm (crystal violet) at 48 hrs divided by OD of control (Streptococcus mitis; 10 μmol/ml): 1.4008; biofilm growth: OD 630 nm (crystal violet) at 48 hrs divided by OD of control (Streptococcus mitis; 20 μmol/ml): 0.2959; biofilm growth: OD 630 nm (crystal violet) at 48 hrs divided by OD of control (Streptococcus mitis; 25 μmol/ml): 0.0464; biofilm growth: OD 630 nm (crystal violet) at 48 hrs divided by OD of control (Streptococcus mutans; 5 μmol/ml): 0.0252; biofilm growth: OD 630 nm (crystal violet) at 48 hrs divided by OD of control (Streptococcus mutans; 10 μmol/ml): 0.0118; biofilm growth: OD 630 nm (crystal violet) at 48 hrs divided by OD of control (Streptococcus mutans; 20 μmol/ml): 0.9625; biofilm growth: OD 630 nm (crystal violet) at 48 hrs divided by OD of control (Streptococcus mutans; 25 μmol/ml): 1.3235; biofilm growth: OD 630 nm (crystal violet) at 48 hrs divided by OD of control (Streptococcus salivarius; 5 μmol/ml): 0.8003; biofilm growth: OD 630 nm (crystal violet) at 48 hrs divided by OD of control (Streptococcus salivarius; 10 μmol/ml): 0.9847; biofilm growth: OD 630 nm (crystal violet) at 48 hrs divided by OD of control (Streptococcus salivarius; 20 μmol/ml): 1.0385; biofilm growth: OD 630 nm (crystal violet) at 48 hrs divided by OD of control (Streptococcus salivarius; 25 μmol/ml): 1.4734; prebiotic effects (extent of growth) ([1]; 10 μmol/ml): exhibited prebiotic effects; prebiotic effects (extent of growth) ([1]; 20 μmol/ml): exhibited prebiotic effects; prebiotic effects (extent of growth) ([1]; 25 μmol/ml): exhibited prebiotic effects; prebiotic effects (biofilm growth) ([2]; 10 μmol/ml): exhibited prebiotic effects; prebiotic effects (biofilm growth) ([2]; 20 μmol/ml): exhibited prebiotic effects; prebiotic effects (biofilm growth) ([2]; 25 μmol/ml): exhibited prebiotic effects |
| Phe-Glu | 0.9914 | 0.4234 | 0.0174 | 0.0067 | 0.1909 | 0.1079 | 0.1578 | 0.2648 | 0.2553 | 0.2232 | 0.0056 | 0.0112 | 0.7904 | 0.1852 | 0.2103 | 0.2516 | 1.8315 | 1.7019 | 0.6462 | 0.2237 | biofilm growth: OD 630 nm (crystal violet) at 48 hrs divided by OD of control (Streptococcus mitis; 5 μmol/ml): 0.7237; biofilm growth: OD 630 nm (crystal violet) at 48 hrs divided by OD of control (Streptococcus mitis; 10 μmol/ml): 0.0179; biofilm growth: OD 630 nm (crystal violet) at 48 hrs divided by OD of control (Streptococcus mitis; 20 μmol/ml): 0.0264; biofilm growth: OD 630 nm (crystal violet) at 48 hrs divided by OD of control (Streptococcus mitis; 25 μmol/ml): 0.1018; biofilm growth: OD 630 nm (crystal violet) at 48 hrs divided by OD of control (Streptococcus mutans; 5 μmol/ml): 0.0781; biofilm growth: OD 630 nm (crystal violet) at 48 hrs divided by OD of control (Streptococcus mutans; 10 μmol/ml): 0.5693; biofilm growth: OD 630 nm (crystal violet) at 48 hrs divided by OD of control (Streptococcus mutans; 20 μmol/ml): 1.2009; biofilm growth: OD 630 nm (crystal violet) at 48 hrs divided by OD of control (Streptococcus mutans; 25 μmol/ml): 0.4072; biofilm growth: OD 630 nm (crystal violet) at 48 hrs divided by OD of control (Streptococcus salivarius; 5 μmol/ml): 1.4007; biofilm growth: OD 630 nm (crystal violet) at 48 hrs divided by OD of control (Streptococcus salivarius; 10 μmol/ml): 1.0359; biofilm growth: OD 630 nm (crystal violet) at 48 hrs divided by OD of control (Streptococcus salivarius; 20 μmol/ml): 0.8978; biofilm growth: OD 630 nm (crystal violet) at 48 hrs divided by OD of control (Streptococcus salivarius; 25 μmol/ml): 0.7342; prebiotic effects (extent of growth) ([1]; 5 μmol/ml): exhibited prebiotic effects; prebiotic effects (extent of growth) ([1]; 10 μmol/ml): exhibited prebiotic effects; prebiotic effects (biofilm growth) ([2]; 5 μmol/ml): exhibited prebiotic effects; prebiotic effects (biofilm growth) ([2]; 10 μmol/ml): exhibited prebiotic effects |

From patent publication US10159640B2, “Prebiotic oral care compositions containing amino acids” (COLGATE-PALMOLIVE COMPANY, priority 2013, dated 2018)
